Structures can show the parent of a compound that is named as a salt.
Legend:
[1] = target: T1, δ receptor (Mus musculus, UniProt P32300); experiment: Ke with NTI in isolated mouse vas deference preparation; type: cell-based, mouse (male ddy); details: for Ke NTI: NTI (δ)
T1 construct: The isolated vas deference was filled with Krebes-Henseleit solution; from tissue; host or cells: isolated vas deferens of male ddy mouse
Procedure: (§1) A male ddy mouse was used in this test. The isolated vas deference was filled with Krebes-Henseleit solution (NaCl 118 mM; KCl 4.7 mM; CaCl2 2.5 mM; KH2 PO4 1.1 mM; NaHCO3 25 mM; and glucose 10 mM) warmed to 37° C. and suspended in a Magnus tube ventilated with 5% carbon dioxide and 95% oxygen. Electrical stimulus was performed at 0.1 Hz for 5.0 ms by means of ring-shaped platinum electrodes located above and below. Tissue contractions were recorded on a polygraph using an isometric transducer.
(§2) Then after adequately washing with nutrient solution and the contraction reaction stabilized, naloxone, a μ […], NTI, a δ […], or norBNI, a κ […], were added and the test compound was again cumulatively added after roughly 20 minutes. The Ke value was calculated using the following calculation formula from the difference in the efficacies of both agonists.
(§3) Ke=[Conc. of added agonist]/(IC50 ratio-1)
(§4) IC50 ratio IC50 in the presence of agonist/IC50 in the absence of agonist

[2] = test system: Wistar rats; experiment: Evaluation of diuretic action; type: in vivo, rat (male Wistar); details: sc, rat, s.c., urine output for 5 h after 20 ml/kg saline oral; for ED500: read-out: ED500, diuretic action (dose giving urine output of 500, non-dosed group = 100); for ED200: read-out: ED200, diuretic action (dose giving urine output of 200, non-dosed group = 100)
Procedure: Evaluation of Diuretic Action
7-8 week old male Wistar rats were used in this test after prohibiting from drinking water for 1 hour before testing. After discharging any urine accumulated in the bladder by gently stimulating the lower abdomens of the animals, the drug was administered subcutaneously. After 30 minutes, the animals were then forcibly given 20 ml/kg of physiological saline orally. The animals were then placed in metabolic cages immediately after administration of the drug (2 animals/cage) and urine output for 5 hours after loading with physiological saline was measured. Drug efficacy was expressed in the form of those doses resulting in urine outputs of 200 and 500, respectively, when the urine output of a non-dosed group was taken to be 100. Those doses were expressed as the ED200 and ED500 values, respectively.

[3] = target: T2, μ receptor (Mus musculus, UniProt P42866); experiment: Ke with naloxone in isolated mouse vas deference preparation; type: cell-based, mouse (male ddy)
T2 construct: The isolated vas deference was filled with Krebes-Henseleit solution; from tissue; host or cells: isolated vas deferens of male ddy mouse
Procedure: as §1, §2, §3, §4

[4] = target: T3, κ receptor (Mus musculus, UniProt P33534); experiment: Ke with norBNI in isolated mouse vas deference preparation; type: cell-based, mouse (male ddy); details: for Ke norBNI: norBNI (κ)
T3 construct: The isolated vas deference was filled with Krebes-Henseleit solution; from tissue; host or cells: isolated vas deferens of male ddy mouse
Procedure: as §1, §2, §3, §4

[5] = test system: isolated mouse vas deference; experiment: Opioid activity test using the isolated mouse vas deference preparation (electrically stimulated contractions); type: cell-based, mouse (male ddy); details: suppression of electrically stimulated contractions
Procedure: Opioid Activity Test Using the Isolated Mouse Vas Deference Preparation
as §1, §2

T1 sequence (P32300 whole entry): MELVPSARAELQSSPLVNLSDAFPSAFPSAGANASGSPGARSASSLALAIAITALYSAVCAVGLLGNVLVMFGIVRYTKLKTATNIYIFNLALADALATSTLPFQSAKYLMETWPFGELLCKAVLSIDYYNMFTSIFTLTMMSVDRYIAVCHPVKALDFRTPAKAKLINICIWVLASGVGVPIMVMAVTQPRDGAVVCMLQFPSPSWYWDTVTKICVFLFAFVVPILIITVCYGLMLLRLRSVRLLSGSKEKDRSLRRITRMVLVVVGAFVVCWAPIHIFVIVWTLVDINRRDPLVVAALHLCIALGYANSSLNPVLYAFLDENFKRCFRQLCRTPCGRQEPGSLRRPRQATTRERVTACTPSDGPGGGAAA
T2 sequence (P42866 whole entry): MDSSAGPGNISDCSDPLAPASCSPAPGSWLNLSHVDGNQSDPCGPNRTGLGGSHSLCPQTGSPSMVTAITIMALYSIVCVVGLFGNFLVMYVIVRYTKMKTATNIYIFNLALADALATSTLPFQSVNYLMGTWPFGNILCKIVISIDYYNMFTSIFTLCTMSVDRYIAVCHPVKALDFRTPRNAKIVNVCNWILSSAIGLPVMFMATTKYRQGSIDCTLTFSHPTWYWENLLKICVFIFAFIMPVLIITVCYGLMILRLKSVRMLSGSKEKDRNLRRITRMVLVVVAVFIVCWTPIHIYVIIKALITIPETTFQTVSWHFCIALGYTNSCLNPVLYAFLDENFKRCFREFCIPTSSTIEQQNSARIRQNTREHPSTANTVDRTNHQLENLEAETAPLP
T3 sequence (P33534 whole entry): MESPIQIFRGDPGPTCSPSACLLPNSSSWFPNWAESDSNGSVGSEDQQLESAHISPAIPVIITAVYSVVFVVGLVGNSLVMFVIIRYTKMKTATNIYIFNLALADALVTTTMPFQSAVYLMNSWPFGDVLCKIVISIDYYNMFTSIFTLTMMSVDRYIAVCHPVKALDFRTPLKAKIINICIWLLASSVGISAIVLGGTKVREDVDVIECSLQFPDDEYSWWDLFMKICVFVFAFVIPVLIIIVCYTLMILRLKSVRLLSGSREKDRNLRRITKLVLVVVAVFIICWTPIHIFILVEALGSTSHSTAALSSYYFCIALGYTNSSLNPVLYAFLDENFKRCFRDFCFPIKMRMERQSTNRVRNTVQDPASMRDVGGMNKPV

| SMILES | Ke NTI [1] | ED500 [2] | ED200 [2] | Ke Naloxone [3] | selective agonist for κ receptors (in words) [4] | Ke norBNI [4] | selective agonist for δ receptors (in words) [1] | IC50 [5] |
| --- | --- | --- | --- | --- | --- | --- | --- | --- |
| CN(C(=O)CCc1ccccc1)[C@H]1CC[C@@]2(O)[C@H]3Cc4ccc(O)c5c4[C@@]2(CCN3CC2CC2)[C@H]1O5 [Compound 22, 17-Cyclopropylmethyl-4,5α-epoxy-3,14β-dihydroxy-6α-(N-methyl-3-phenylpropionamido)morphinan.tartrate] | 545 nM | 17 µg/kg | 0.95 µg/kg | 800 nM | selective agonists for κ receptors | 5.53 nM | – | – |
| CN(C(=O)/C=C/c1ccccc1)[C@H]1CC[C@@]2(O)[C@H]3Cc4ccc(O)c5c4[C@@]2(CCN3CC2CC2)[C@H]1O5 [Compound 24, 17-cyclopropylmethyl-3,14β-dihydroxy-4,5α-epoxy-6α-(N-methylcinnamamido)morphinan.hydrochloride] | 0.426 nM | 6.3 µg/kg | 0.69 µg/kg | 16.5 nM | – | 4.90 nM | selective agonists for δ receptors | – |
| CN(C(=O)COc1ccccc1)[C@H]1CC[C@@]2(O)[C@H]3Cc4ccc(O)c5c4[C@@]2(CCN3CC2CC2)[C@H]1O5 [Compound 38, 17-cyclopropylmethyl-3,14β-dihydroxy-4,5α-epoxy-6α-(N-methylphenoxyacetamido) morphinan.hydrochloride] | 16.6 nM | – | 3.8 µg/kg | 411 nM | selective agonists for κ receptors | 4.65 nM | – | – |
| CCCCCC(=O)N(C)[C@H]1CC[C@@]2(O)[C@H]3Cc4ccc(O)c5c4[C@@]2(CCN3CC2CC2)[C@H]1O5 [Compound 39, 17-cyclopropylmethyl-3,14β-dihydroxy-4,5α-epoxy-6α-(N-methylhexanamido)morphinan.tartrate] | 99.3 nM | – | 4.1 µg/kg | 89.9 nM | selective agonists for κ receptors | 1.01 nM | – | – |
| CN(C(=O)OCc1ccc([N+](=O)[O-])cc1)[C@H]1CC[C@@]2(O)[C@H]3Cc4ccc(O)c5c4[C@@]2(CCN3CC2CC2)[C@H]1O5 [Compound 43, 17-cyclopropylmethyl-3,14β-dihydroxy-4,5α-epoxy-6α-(N-methyl-4-nitrobenzyloxycarbamido)morphinan.hydrochloride] | 22.5 nM | 4.4 µg/kg | 0.54 µg/kg | 409 nM | selective agonists for κ receptors | 5.31 nM | – | – |
| CN(C(=O)/C=C/c1ccoc1)[C@@H]1CC[C@@]2(O)[C@H]3Cc4ccc(O)c5c4[C@@]2(CCN3CC2CC2)[C@H]1O5 [Compound 61, 17-cyclopropylmethyl-3,14β-dihydroxy-4,5α-epoxy-6β-[N-methyl-trans-3-(3-furyl)acrylamido]morphinan.tartrate] | – | – | 3.2 µg/kg | – | – | 0.164 nM | – | 0.42 nM |
| CN(C(=O)/C=C/c1ccco1)[C@@H]1CC[C@@]2(O)[C@H]3Cc4ccc(O)c5c4[C@@]2(CCN3CC2CC2)[C@H]1O5 [Compound 70, 17-cyclopropylmethyl-3,14β-dihydroxy-4,5α-epoxy-62. [N-methyl-trans-3-(2-furyl)acrylamido] morphinan.hydrochloride] | – | – | – | – | selective agonists for κ receptors | 0.198 nM | – | 0.545 nM |
| CN(C(=O)C#Cc1ccccc1)[C@H]1CC[C@@]2(O)[C@H]3Cc4ccc(O)c5c4[C@@]2(CCN3CC2CC2)[C@H]1O5 [Compound 84, 17-cyclopropylmethyl-3,14β-dihydroxy-4,5α-epoxy-6α-(N-methyl-3-phenylpropiolamido)morphinan.hydrochloride] | 0.309 nM | – | 2.8 µg/kg | 35.4 nM | – | 5.69 nM | selective agonists for δ receptors | – |
| CN(C(=O)/C=C/c1ccoc1)[C@H]1CC[C@@]2(O)[C@H]3Cc4ccc(O)c5c4[C@@]2(CCN3CC2CC2)[C@H]1O5 [Compound 89, 17-cyclopropylmethyl-3,14β-dihydroxy-4,5α-epoxy-6α-[N-methyl-trans-3-(3-furyl)acrylamido]morphinane.tartrate] | 15.6 nM | – | 1.2 µg/kg | 18.3 nM | selective agonists for κ receptors | 0.85 nM | – | – |
| CN(C(=O)/C=C/c1cccc([N+](=O)[O-])c1)[C@H]1CC[C@@]2(O)[C@H]3Cc4ccc(O)c5c4[C@@]2(CCN3CC2CC2)[C@H]1O5 [Compound 97, 17-cyclopropylmethyl-3,14β-dihydroxy-4,5α-epoxy-6α-(N-methyl-3-nitrocinnamamido)morphinanphosphate] | 2.92 nM | – | 4.5 µg/kg | 163 nM | – | 13.9 nM | selective agonists for δ receptors | – |
| CN(C(=O)C#Cc1ccccc1)[C@@H]1CC[C@@]2(O)[C@H]3Cc4ccc(O)c5c4[C@@]2(CCN3CC2CC2)[C@H]1O5 [Compound 101, 17-cyclopropylmethyl-3,14β-dihydroxy-4,5α-epoxy-6β-(N-methyl-3-phenylpropiolamido)morphinan.hydrochloride] | 31.6 nM | – | 8.9 µg/kg | 25.4 nM | selective agonists for κ receptors | 0.0425 nM | – | – |
| CN(C(=O)/C=C/c1cccc([N+](=O)[O-])c1)[C@@H]1CC[C@@]2(O)[C@H]3Cc4ccc(O)c5c4[C@@]2(CCN3CC2CC2)[C@H]1O5 [Compound 104, 17-cyclopropylmethyl-3,14β-dihydroxy-4,5α-epoxy-6β-(N-methyl-3-nitrocinnamamido)morphinan.tartrate] | 89 nM | – | – | 185 nM | – | 1.40 nM | – | – |
| C=CCN1CC[C@]23c4c5ccc(O)c4O[C@H]2[C@@H](N(C)C(=O)Cc2ccc(Cl)c(Cl)c2)CC[C@@]3(O)[C@H]1C5 [Compound 122, 17-allyl-3,14β-dihydroxy-4,5α-epoxy-6α-(N-methyl-3,4-dichlorophenylacetamido)morphinan.hydrochloride] | 42.7 nM | – | – | 59.5 nM | selective agonists for κ receptors | 0.358 nM | – | – |
| CN(C(=O)C#Cc1ccc(C(F)(F)F)cc1)[C@H]1CC[C@@]2(O)[C@H]3Cc4ccc(O)c5c4[C@@]2(CCN3CC2CC2)[C@H]1O5 [Compound 126, 17-Cyclopropylmethyl-3,14β-dihydroxy-4,5α-epoxy-6α-[N-methyl-3-(4-trifluoromethylphenyl)propiolamido] morphinan.0.5 tartrate] | 0.0065 nM | – | – | 40.2 nM | – | 1.20 nM | selective agonists for δ receptors | – |
| CC(=O)Oc1ccc2c3c1O[C@H]1[C@H](N(C)C(=O)/C=C/c4cccc(C(F)(F)F)c4)CC[C@@]4(O)[C@@H](C2)N(CC2CC2)CC[C@]314 [Compound 141, 17-cyclopropylmethyl-3-acetoxy-14β-hydroxy-4,5α-epoxy-6β-(N-methyl-3-trifluoromethylcinnamamido)morphinan.tartrate] | 184 nM | – | – | 142 nM | selective agonists for κ receptors | 1.39 nM | – | – |

From patent US6277859A, “Morphinan derivative and its pharmaceutical applications” (priority 1992, dated 2001)
